Results published in ChEMBL document CHEMBL1909046, “DrugMatrix in vitro pharmacology data”.

Tests used:
Vasopressin V1a receptor = Vasopressin V1a receptor (Homo sapiens, UniProt P37288); format: cell membranes, Membrane; conditions: hek293; note: in other assays of this panel Not Active means under 50% inhibition at 10 µM
[1] = DRUGMATRIX: GABAA, Flunitrazepam, Central radioligand binding (ligand: [3H] Flunitrazepam); format: cell membranes, Rattus norvegicus, Wistar, Brain, Membrane; conditions: Not Active = under 50% inhibition at 10 µM
[2] = DRUGMATRIX: Phorbol Ester radioligand binding (ligand: [3H] PDBu); format: cell membranes, Mus musculus, ICR, Brain, Membrane; conditions: Not Active = under 50% inhibition at 10 µM
Progesterone receptor = molecular target: T1, Progesterone receptor (Bos taurus, UniProt Q690N0); assay: DRUGMATRIX: Progesterone radioligand binding (ligand: [3H] R-5020); format: tissue-based, Uterus; conditions: Not Active = under 50% inhibition at 10 µM
T1 sequence (Q690N0 whole entry): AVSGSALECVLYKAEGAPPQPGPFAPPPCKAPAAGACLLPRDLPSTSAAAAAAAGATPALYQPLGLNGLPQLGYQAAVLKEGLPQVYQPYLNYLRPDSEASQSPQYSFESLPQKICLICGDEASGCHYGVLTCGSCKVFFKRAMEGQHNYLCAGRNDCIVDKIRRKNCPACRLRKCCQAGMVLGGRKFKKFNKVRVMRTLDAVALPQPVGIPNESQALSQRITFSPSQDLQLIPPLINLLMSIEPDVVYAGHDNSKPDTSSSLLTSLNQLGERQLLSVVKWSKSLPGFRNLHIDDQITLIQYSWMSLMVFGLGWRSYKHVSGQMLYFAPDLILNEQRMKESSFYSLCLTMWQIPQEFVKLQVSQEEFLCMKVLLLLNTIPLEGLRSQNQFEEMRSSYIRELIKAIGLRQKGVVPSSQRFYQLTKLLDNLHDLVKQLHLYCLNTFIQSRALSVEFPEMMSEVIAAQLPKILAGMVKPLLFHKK

Androgen receptor = molecular target: T2, Androgen receptor (Rattus norvegicus, UniProt P15207); note: in other assays of this panel Not Active means under 50% inhibition at 10 µM
T2 sequence (P15207 whole entry): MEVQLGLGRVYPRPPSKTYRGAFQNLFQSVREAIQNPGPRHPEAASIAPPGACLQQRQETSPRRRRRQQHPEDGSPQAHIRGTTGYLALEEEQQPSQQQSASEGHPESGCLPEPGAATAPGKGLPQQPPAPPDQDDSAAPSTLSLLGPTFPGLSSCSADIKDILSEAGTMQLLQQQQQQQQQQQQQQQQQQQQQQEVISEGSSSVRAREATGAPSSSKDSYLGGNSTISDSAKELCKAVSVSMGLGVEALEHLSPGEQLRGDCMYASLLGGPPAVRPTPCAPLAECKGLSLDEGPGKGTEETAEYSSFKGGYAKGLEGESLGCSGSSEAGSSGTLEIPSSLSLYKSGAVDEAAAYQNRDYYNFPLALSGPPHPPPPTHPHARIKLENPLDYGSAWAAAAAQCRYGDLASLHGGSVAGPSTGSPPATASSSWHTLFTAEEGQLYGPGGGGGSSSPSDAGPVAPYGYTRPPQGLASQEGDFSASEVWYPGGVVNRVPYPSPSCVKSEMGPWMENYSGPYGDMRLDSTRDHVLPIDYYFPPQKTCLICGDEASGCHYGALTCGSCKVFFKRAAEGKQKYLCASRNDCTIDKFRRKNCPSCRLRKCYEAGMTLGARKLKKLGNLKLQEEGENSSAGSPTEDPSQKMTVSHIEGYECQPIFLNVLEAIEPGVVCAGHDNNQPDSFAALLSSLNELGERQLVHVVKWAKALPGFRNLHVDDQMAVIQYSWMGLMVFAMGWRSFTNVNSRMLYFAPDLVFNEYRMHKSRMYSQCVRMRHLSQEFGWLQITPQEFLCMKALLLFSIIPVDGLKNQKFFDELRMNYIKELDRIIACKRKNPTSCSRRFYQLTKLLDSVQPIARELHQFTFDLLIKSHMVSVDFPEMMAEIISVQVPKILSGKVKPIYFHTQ

Chain of Vasopressin V1a receptor (P37288 whole entry): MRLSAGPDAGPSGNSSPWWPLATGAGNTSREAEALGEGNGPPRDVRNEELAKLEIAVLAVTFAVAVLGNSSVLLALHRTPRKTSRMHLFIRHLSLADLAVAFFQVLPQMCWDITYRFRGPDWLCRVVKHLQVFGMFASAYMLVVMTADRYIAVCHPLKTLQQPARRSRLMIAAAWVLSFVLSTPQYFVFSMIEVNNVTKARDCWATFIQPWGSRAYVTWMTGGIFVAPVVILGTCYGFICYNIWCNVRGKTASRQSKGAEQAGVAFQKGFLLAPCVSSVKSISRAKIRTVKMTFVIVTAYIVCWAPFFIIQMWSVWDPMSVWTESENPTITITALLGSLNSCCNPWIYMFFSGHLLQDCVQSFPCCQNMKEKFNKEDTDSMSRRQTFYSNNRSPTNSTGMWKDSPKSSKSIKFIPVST

Row | Compound | IC50 (Vasopressin V1a receptor) | IC50 [1] | Ki [1] | IC50 [2] | Ki [2] | IC50 (Progesterone receptor) | IC50 (Androgen receptor) | Ki (Vasopressin V1a receptor) | Ki (Progesterone receptor) | Ki (Androgen receptor) | IC50 ([1]; read-out: IC50) [nM] | Ki ([1]; read-out: Ki) [nM]
1 | COc1ccccc1OCC(O)CO (stereo not given) [GUAIFENESIN] | Not Active | Not Active | Not Active | Not Active | Not Active | Not Active | Not Active | – | – | – | – | –
2 | C[C@]12CCC(=O)C=C1CC[C@@H]1[C@@H]2[C@@H](O)C[C@@]2(C)[C@H]1CC[C@]2(O)C(=O)CO [HYDROCORTISONE] | Not Active | Not Active | Not Active | Not Active | Not Active | Not Active | Not Active | – | – | – | – | –
3 | POLYVINYL ALCOHOL | Not Active | Not Active | Not Active | Not Active | Not Active | Not Active | Not Active | Not Active | Not Active | Not Active | – | –
4 | COBALT(II) ACETYLACETONATE | Not Active | Not Active | Not Active | Not Active | Not Active | Not Active | Not Active | Not Active | Not Active | Not Active | – | –
5 | CC(C)(Oc1ccc(C2CC2(Cl)Cl)cc1)C(=O)O (stereo not given) [CIPROFIBRATE] | Not Active | Not Active | Not Active | Not Active | Not Active | Not Active | Not Active | – | – | – | – | –
6 | Cc1cn[nH]c1 [FOMEPIZOLE] | Not Active | Not Active | Not Active | Not Active | Not Active | Not Active | Not Active | – | – | – | – | –
7 | CCc1oc2ccccc2c1C(=O)c1cc(Br)c(O)c(Br)c1 [BENZBROMARONE] | Not Active | Not Active | Not Active | Not Active | Not Active | Not Active | Not Active | – | – | – | – | –
8 | CNC(=C[N+](=O)[O-])NCCSCc1csc(CN(C)C)n1 [NIZATIDINE] | Not Active | Not Active | Not Active | Not Active | Not Active | Not Active | Not Active | – | – | – | – | –
9 | CN(Cc1cnc2nc(N)nc(N)c2n1)c1ccc(C(=O)N[C@@H](CCC(=O)O)C(=O)O)cc1 [METHOTREXATE] | Not Active | Not Active | Not Active | Not Active | Not Active | Not Active | Not Active | – | – | – | – | –
10 | Cc1cccc(Nc2cc(Cl)nc(SCC(=O)O)n2)c1C [PIRINIXIC ACID] | Not Active | Not Active | Not Active | Not Active | Not Active | Not Active | Not Active | – | – | – | – | –
11 | INSULIN HUMAN | Not Active | Not Active | Not Active | Not Active | Not Active | Not Active | Not Active | Not Active | Not Active | Not Active | – | –
12 | CC(=O)OCC(CCn1cnc2cnc(N)nc21)COC(C)=O [FAMCICLOVIR] | Not Active | Not Active | Not Active | Not Active | Not Active | Not Active | Not Active | – | – | – | – | –
13 | O=c1cc(-c2ccccc2)oc2ccc3ccccc3c12 [BETA-NAPHTHOFLAVONE] | Not Active | Not Active | Not Active | Not Active | Not Active | Not Active | Not Active | – | – | – | – | –
14 | CC(C)(C)c1ccc(S(=O)(=O)/C=C/C#N)cc1 [BAY-11-7085] | Not Active | Not Active | Not Active | Not Active | Not Active | Not Active | Not Active | – | – | – | – | –
15 | Clc1cc2c(cc1Cl)Oc1cc(Cl)c(Cl)cc1O2 [2,3,7,8-TETRACHLORODIBENZO-P-DIOXIN] | Not Active | Not Active | Not Active | Not Active | Not Active | Not Active | Not Active | – | – | – | – | –
16 | Oc1ccccc1O [CATECHOL] | Not Active | Not Active | Not Active | Not Active | Not Active | Not Active | – | – | – | – | – | –

Row | Compound | IC50 (Vasopressin V1a receptor) | IC50 [1] | Ki [1] | IC50 [2] | Ki [2] | IC50 (Progesterone receptor) | IC50 (Androgen receptor) | Ki (Vasopressin V1a receptor) | Ki (Progesterone receptor) | Ki (Androgen receptor) | IC50 ([1]; read-out: IC50) [nM] | Ki ([1]; read-out: Ki) [nM]
17 | Cc1c(F)c(N2CCNC(C)C2)cc2c1c(=O)c(C(=O)O)cn2C1CC1 (stereo not given) [GREPAFLOXACIN] | Not Active | Not Active | Not Active | Not Active | Not Active | Not Active | – | – | – | – | – | –
18 | [N-]=[N+]=CC(=O)OC[C@H](N)C(=O)O [AZASERINE] | Not Active | Not Active | Not Active | Not Active | Not Active | Not Active | – | – | – | – | – | –
19 | CO[C@H]1[C@@H](O)[C@H](N)[C@@H](O[C@H]2O[C@H]([C@H](C)N)CC[C@H]2N)[C@H](O)[C@@H]1N(C)C(=O)CN [ASTROMICIN] | Not Active | Not Active | Not Active | Not Active | Not Active | Not Active | – | – | – | – | – | –
20 | COc1ccc2cc(CCC(C)=O)ccc2c1 [NABUMETONE] | Not Active | Not Active | Not Active | Not Active | Not Active | Not Active | – | – | – | – | – | –
21 | NC(=O)N1c2ccccc2C=Cc2ccccc21 [CARBAMAZEPINE] | Not Active | Not Active | Not Active | Not Active | Not Active | Not Active | – | – | – | – | – | –
22 | Cc1c(N(C)CS(=O)(=O)[O-])c(=O)n(-c2ccccc2)n1C.[Na+] [DIPYRONE SODIUM] | Not Active | Not Active | Not Active | Not Active | Not Active | Not Active | – | – | – | – | – | –
23 | OCCN1CCN(CCCN2c3ccccc3Sc3ccc(Cl)cc32)CC1 [PERPHENAZINE] | Not Active | Not Active | Not Active | Not Active | Not Active | Not Active | – | – | – | – | – | –
24 | CCOC(=O)n1ccn(C)c1=S [CARBIMAZOLE] | Not Active | Not Active | Not Active | Not Active | Not Active | Not Active | – | – | – | – | – | –
25 | CCOC(=O)C1=C(C)NC(C)=C(C(=O)OC)C1c1cccc(Cl)c1Cl (stereo not given) [FELODIPINE] | Not Active | Not Active | Not Active | Not Active | Not Active | Not Active | – | – | – | – | – | –
26 | CC(C)C[C@H]1C(=O)N2CCC[C@H]2[C@]2(O)O[C@](NC(=O)[C@@H]3C=C4c5cccc6[nH]c(Br)c(c56)C[C@H]4N(C)C3)(C(C)C)C(=O)N12 [BROMOCRIPTINE] | Not Active | Not Active | Not Active | Not Active | Not Active | Not Active | – | – | – | – | – | –
27 | CN1C(=O)CN=C(c2ccccc2)c2cc(Cl)ccc21 [DIAZEPAM] | Not Active | – | – | Not Active | Not Active | Not Active | – | – | – | – | 28.8 | 23.5
28 | CC(C)(CO)C(O)C(=O)NCCCO (stereo not given) [PANTHENOL] | Not Active | Not Active | Not Active | Not Active | Not Active | Not Active | – | – | – | – | – | –
29 | O=C(O)c1cccnc1 [NIACIN] | Not Active | Not Active | Not Active | Not Active | Not Active | Not Active | – | – | – | – | – | –
30 | C[C@H](C(=O)O)c1cccc(C(=O)c2ccccc2)c1 [DEXKETOPROFEN] | Not Active | Not Active | Not Active | Not Active | Not Active | Not Active | – | – | – | – | – | –
31 | CC[C@H]1OC(=O)[C@H](C)[C@@H](O[C@H]2C[C@@](C)(OC)[C@@H](O)[C@H](C)O2)[C@H](C)[C@@H](O[C@@H]2O[C@H](C)C[C@H](N(C)C)[C@H]2O)[C@](C)(OC)C[C@@H](C)C(=O)[C@H](C)[C@@H](O)[C@]1(C)O [CLARITHROMYCIN] | Not Active | Not Active | Not Active | Not Active | Not Active | Not Active | – | – | – | – | – | –
